Data reported in the CheMixHub ionic liquid set.
Several values for one entry are separate records, joined by “and”; a condition that tells them apart may be missing. Identical values can stand only once. ± gives the uncertainty stated by the source.

Test: xn = mol fraction of the nth substance listed

CC(C)C[P+](C)(CC(C)C)CC(C)C.Cc1ccc(S(=O)(=O)[O-])cc1 + O
Conditions | viscosity [mPa·s]
293.15 K, 101 kPa, x2 = 0.7599 | 68 ± 5
293.15 K, 101 kPa, x2 = 0.8779 | 23 ± 1.7
293.15 K, 101 kPa, x2 = 0.9283 | 11.6 ± 1.1
293.15 K, 101 kPa, x2 = 0.9729 | 4 ± 0.4
298.15 K, 100 kPa, x1 = 0.003319 | 1.115 ± 0.023
298.15 K, 100 kPa, x1 = 0.00854 | 1.475 ± 0.031
308.15 K, 100 kPa, x1 = 0.009239 | 1.175 ± 0.025
333.15 K, 100 kPa, x1 = 0.9022 | 221 ± 16
353.15 K, 100 kPa, x1 = 0.9022 | 79 ± 5

CCC(=O)[O-].C[n+]1ccn(CCO)c1 + O
100 kPa
Conditions | viscosity [mPa·s]
298.15 K, x1 = 0.7595 | 94.2 ± 7.1
298.15 K, x1 = 0.8421 | 117 ± 9.1
308.15 K, x1 = 0.8991 | 75.9 ± 5.6
318.15 K, x1 = 0.8421 | 40.3 ± 2.4
323.15 K, x1 = 0.8083 | 31.9 ± 1.9
323.15 K, x1 = 0.8991 | 34.8 ± 2.3
328.15 K, x1 = 0.8083 | 27 ± 1.7
328.15 K, x1 = 0.9102 | 30.5 ± 1.8
333.15 K, x1 = 0.8991 | 23.6 ± 1.3

CCCCCCCCCCCCCC[n+]1ccccc1.O=C([O-])C(O)c1ccccc1 + O
electrical conductivity [S/m], 101 kPa
Conditions | 293.15 K | 298.15 K | 303.15 K | 308.15 K | 313.15 K
x1 = 6.85e-06 | 0.00248 ± 0.00074 | 0.00278 ± 0.00083 | 0.00309 ± 0.00092 | 0.0034 ± 0.001 | 0.0037 ± 0.0011
x1 = 1.424e-05 | 0.00472 ± 0.00079 | 0.00529 ± 0.00089 | 0.00587 ± 0.00099 | 0.0065 ± 0.0011 | 0.0071 ± 0.0012
x1 = 2.126e-05 | 0.00671 ± 0.0009 | 0.0076 ± 0.001 | 0.0084 ± 0.0011 | 0.0093 ± 0.0013 | 0.0101 ± 0.0014
x1 = 2.811e-05 | 0.0086 ± 0.001 | 0.0097 ± 0.0012 | 0.0108 ± 0.0013 | 0.0122 ± 0.0015 | 0.0131 ± 0.0016
x1 = 3.46e-05 | 0.0103 ± 0.0011 | 0.0116 ± 0.0013 | 0.0129 ± 0.0014 | 0.0145 ± 0.0016 | 0.0157 ± 0.0018
x1 = 4.108e-05 | 0.0117 ± 0.0012 | 0.0131 ± 0.0014 | 0.0146 ± 0.0015 | 0.0161 ± 0.0017 | 0.0179 ± 0.0019
x1 = 4.811e-05 | 0.0129 ± 0.0013 | 0.0144 ± 0.0015 | 0.0161 ± 0.0017 | 0.0179 ± 0.0019 | 0.0198 ± 0.0021
x1 = 5.388e-05 | 0.0137 ± 0.0014 | 0.0154 ± 0.0016 | 0.0172 ± 0.0018 | 0.0191 ± 0.002 | 0.0211 ± 0.0022
x1 = 5.982e-05 | 0.0145 ± 0.0015 | 0.0163 ± 0.0017 | 0.0182 ± 0.0019 | 0.0202 ± 0.0021 | 0.0224 ± 0.0023
x1 = 6.559e-05 | 0.0153 ± 0.0016 | 0.0172 ± 0.0018 | 0.0192 ± 0.0019 | 0.0213 ± 0.0022 | 0.0236 ± 0.0024
x1 = 7.081e-05 | 0.016 ± 0.0016 | 0.018 ± 0.0018 | 0.02 ± 0.002 | 0.0223 ± 0.0023 | 0.0246 ± 0.0025
x1 = 7.604e-05 | 0.0167 ± 0.0017 | 0.0187 ± 0.0019 | 0.0209 ± 0.0021 | 0.0232 ± 0.0024 | 0.0258 ± 0.0026
x1 = 8.072e-05 | 0.0173 ± 0.0018 | 0.0194 ± 0.002 | 0.0217 ± 0.0022 | 0.0241 ± 0.0024 | 0.0266 ± 0.0027

CCCCCCCCCCCCOS(=O)(=O)[O-].CCCC[n+]1ccn(C)c1 + O
Conditions | viscosity [mPa·s]
333 K, 101 kPa, x1 = 0.06262 | 970000 ± 250000

CCCCCCCCCCOS(=O)(=O)[O-].CC[n+]1ccn(C)c1 + O
101 kPa, frequency 0.0005 MHz, x1 = 0.075
Conditions | electrical conductivity [S/m]
308.15 K | 2.87 ± 0.17
363.15 K | 6.86 ± 0.41

CCCCCCCC[N+](CC)(CC)CC.O=S(=O)([N-]S(=O)(=O)C(F)(F)F)C(F)(F)F + O
101 kPa, x2 = 0.1435
Conditions | viscosity
318.05 K | 36.51 ± 0.76 mPa·s and 55.8 ± 1.1 mPa·s
323.05 K | 29.74 ± 0.63 mPa·s

CCCC[N+](CCCC)(CCCC)Cc1ccccc1.[Cl-] + O
electrical conductivity [S/m], frequency 0.001 MHz
Conditions | 293.15 K | 298.15 K | 303.15 K | 308.15 K | 313.15 K | 318.15 K
100 kPa, x1 = 1.802e-05 | 0.0056 ± 0.0042 | 0.0105 ± 0.0042 | 0.0171 ± 0.0042 | 0.0235 ± 0.0042 | 0.0329 ± 0.0042 | –
100 kPa, x1 = 5.406e-05 | 0.0129 ± 0.0042 | 0.0203 ± 0.0042 | 0.0243 ± 0.0042 | 0.0288 ± 0.0042 | 0.0396 ± 0.0042 | –
100 kPa, x1 = 9.009e-05 | 0.0172 ± 0.0042 | 0.0255 ± 0.0042 | 0.0327 ± 0.0042 | 0.0349 ± 0.0042 | 0.0468 ± 0.0042 | –
101.3 kPa, x1 = 1.802e-05 | – | 0.0104 ± 0.0043 | – | 0.0139 ± 0.0051 | – | 0.0173 ± 0.0061
101.3 kPa, x1 = 5.406e-05 | – | 0.0231 ± 0.0047 | – | 0.0284 ± 0.0056 | – | 0.0345 ± 0.0071
101.3 kPa, x1 = 9.009e-05 | – | 0.0367 ± 0.006 | – | 0.0457 ± 0.0069 | – | 0.0546 ± 0.0081

viscosity [mPa·s]
Conditions | 293.15 K | 298.15 K | 303.15 K | 308.15 K | 318.15 K
100 kPa, x1 = 1.802e-05 | 0.953 ± 0.044 | 0.913 ± 0.044 | 0.876 ± 0.044 | – | –
100 kPa, x1 = 5.406e-05 | 0.961 ± 0.044 | 0.921 ± 0.044 | 0.88 ± 0.044 | – | –
100 kPa, x1 = 9.009e-05 | 0.972 ± 0.044 | 0.93 ± 0.044 | – | – | –
101.3 kPa, x1 = 1.802e-05 | – | 0.906 ± 0.045 | – | 0.775 ± 0.045 | 0.643 ± 0.045
101.3 kPa, x1 = 5.406e-05 | – | 0.923 ± 0.045 | – | 0.793 ± 0.045 | 0.659 ± 0.045
101.3 kPa, x1 = 9.009e-05 | – | 0.942 ± 0.045 | – | – | –

CC[n+]1ccccc1.O=S(=O)([N-]S(=O)(=O)C(F)(F)F)C(F)(F)F + O
viscosity [mPa·s], 101 kPa
Conditions | 298.15 K | 323.15 K | 343.15 K | 353.15 K
x2 = 0.005125 | – | 17.8 ± 1.1 | – | 8.68 ± 0.53
x2 = 0.08693 | 34.1 ± 2.1 | 15.47 ± 0.94 | 9.7 ± 0.59 | –

CCO + O + CCCCCCCCCCCCOS(=O)(=O)[O-].[Na+]
298 K, 100 kPa, frequency 0.001 MHz
Conditions | electrical conductivity [S/m]
x1 = 0.01596, x3 = 0 | 0.00025
x1 = 0.02563, x2 = 0.9744 | 0.00026
x1 = 0.04623, x2 = 0.9538 | 0.00029
x1 = 0.06864, x2 = 0.9314 | 0.00031 ± 0.00057
x1 = 0.1203, x2 = 0.8797 | 0.00025
x1 = 0.1463, x2 = 0.8537 | 0.00025

CCC[N+]1(C)CCCCC1.[Br-] + O + CCCC[N+]1(C)CCCCC1.[Br-]
101 kPa
Conditions | viscosity [mPa·s]
298.15 K, x1 = 0.00449, x3 = 0.004485 | 1.305 ± 0.016
298.15 K, x2 = 0.9578, x1 = 0.01421 | 2.565 ± 0.032
303.15 K, x1 = 0.00449, x3 = 0.004485 | 1.135 ± 0.014
303.15 K, x2 = 0.9577, x1 = 0.02117 | 2.165 ± 0.027
303.15 K, x2 = 0.9734, x1 = 0.00893 | 1.615 ± 0.02
308.15 K, x2 = 0.9733, x1 = 0.01334 | 1.355 ± 0.017

CCCC[N+]1(C)CCCCC1.[Br-] + O + CC[N+]1(C)CCCCC1.[Br-]
101 kPa
Conditions | viscosity [mPa·s]
293.15 K, x2 = 0.9577, x3 = 0.02117 | 2.805 ± 0.034
293.15 K, x3 = 0.005974, x1 = 0.002995 | 1.365 ± 0.017
298.15 K, x2 = 0.9734, x3 = 0.00893 | 1.815 ± 0.023
308.15 K, x2 = 0.9578, x3 = 0.0142 | 1.845 ± 0.023

CCC[N+]1(C)CCCCC1.[Br-] + O + CC[N+]1(C)CCCCC1.[Br-]
Conditions | viscosity [mPa·s]
293.15 K, 101 kPa, x3 = 0.00299, x1 = 0.005976 | 1.575 ± 0.019
